For assay [1], the target named is T1, human full length PIK3KA H1047R mutant (p110α/p85α complex) (Homo sapiens, UniProt P42336, H1047R).
T1 construct: Recombinant, catalytically active human full length PIK3KA Wild-type and H1047R mutant were purchased; 6xHis (N); purchased EMD Millipore Sigma 14-792M
As to the kind of experiment: PI3K-Alpha Kinase (PIK3CA) biochemical activity, H1047R mutant (ADP-Glo). The settings on record: 20 uM ATP. Summed up: (§1)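 ADP formation, measured by ADP-Glo luminescence after reaction to about 10% ATP conversion at 27° C., gives 10-point 4-parameter IC50 curves normalized to no-enzyme and DMSO controls. Lipid substrate was PIP2diC8 or Soy PI at 50 uM, with 20 uM ATP. WT or H1047R p110α/p85α complex (1-5 nM) was preincubated 1 h with compound.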
Background: ADP-Glo first removes unused ATP, then detects ADP through luciferase.

For assay [2], the target named is T2, human full length PIK3KA Wild-type (p110α/p85α complex) (Homo sapiens, UniProt P42336).
T2 construct: Recombinant, catalytically active human full length PIK3KA Wild-type and H1047R mutant were purchased; 6xHis (N); purchased EMD Millipore Sigma 14-602M
The assay is described as follows: PI3K-Alpha Kinase (PIK3CA) biochemical activity, wild-type (ADP-Glo). The settings on record: 20 uM ATP. Summed up: as §1

Assay [3] concerns the target PI3K-α (PIK3CA) in MDA-MB-453 cells (Homo sapiens, UniProt P42336). The assay is described as follows: PI3K-Alpha Kinase (PIK3CA) activity in vitro cell based assay (AlphaLisa SureFire). Conditions: 0% FBS, 3 hours treatment, read-out: PI3K-α (PIK3CA) in vitro cell based assay IC50. The method, boiled down:
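Serum-free MDA-MB-453 cells with 1 μg/mL insulin treated 3 h with a 10-point compound series in 0.3% DMSO; lysates analysed by AlphaLisa SureFire. Relative IC50 from 4-parameter fit of % inhibition versus DMSO (max) and 1 μM GDC-0032 (min) controls, duplicates.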
A general note: Bead proximity is the source of the signal in Alpha formats.

The structures appear in SMILES notation. Bounds are passed on as bounds.

The IC50 is the concentration that gives 50% inhibition.

T1 sequence (P42336 whole entry H1047R): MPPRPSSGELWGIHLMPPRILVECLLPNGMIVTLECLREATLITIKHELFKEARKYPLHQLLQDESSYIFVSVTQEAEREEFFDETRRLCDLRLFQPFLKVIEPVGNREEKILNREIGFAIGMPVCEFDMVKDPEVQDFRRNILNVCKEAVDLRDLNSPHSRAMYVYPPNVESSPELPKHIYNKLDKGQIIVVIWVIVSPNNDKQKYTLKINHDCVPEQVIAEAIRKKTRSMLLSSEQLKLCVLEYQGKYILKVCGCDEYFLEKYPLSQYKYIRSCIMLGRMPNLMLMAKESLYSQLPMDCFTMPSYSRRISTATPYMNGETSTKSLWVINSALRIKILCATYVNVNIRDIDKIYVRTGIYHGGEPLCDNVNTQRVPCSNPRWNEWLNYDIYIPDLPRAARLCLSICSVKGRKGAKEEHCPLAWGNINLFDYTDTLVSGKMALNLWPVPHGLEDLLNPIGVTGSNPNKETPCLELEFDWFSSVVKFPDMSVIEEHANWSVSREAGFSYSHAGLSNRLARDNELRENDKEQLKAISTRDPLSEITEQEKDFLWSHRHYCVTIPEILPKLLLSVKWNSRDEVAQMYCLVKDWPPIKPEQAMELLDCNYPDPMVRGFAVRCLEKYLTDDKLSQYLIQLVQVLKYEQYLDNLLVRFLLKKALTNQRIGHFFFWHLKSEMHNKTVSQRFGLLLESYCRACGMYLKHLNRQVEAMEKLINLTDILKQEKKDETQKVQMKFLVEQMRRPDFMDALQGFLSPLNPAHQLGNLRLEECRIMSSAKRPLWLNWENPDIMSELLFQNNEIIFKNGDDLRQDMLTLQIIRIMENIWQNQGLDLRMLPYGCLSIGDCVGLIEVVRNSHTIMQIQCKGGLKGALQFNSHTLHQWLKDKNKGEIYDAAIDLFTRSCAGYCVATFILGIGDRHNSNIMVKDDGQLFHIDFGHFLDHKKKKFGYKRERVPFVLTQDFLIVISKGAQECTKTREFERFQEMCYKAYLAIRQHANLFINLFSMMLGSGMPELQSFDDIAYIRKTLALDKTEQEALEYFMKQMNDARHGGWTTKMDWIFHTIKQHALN
T1 sequence (P27986 whole entry partner): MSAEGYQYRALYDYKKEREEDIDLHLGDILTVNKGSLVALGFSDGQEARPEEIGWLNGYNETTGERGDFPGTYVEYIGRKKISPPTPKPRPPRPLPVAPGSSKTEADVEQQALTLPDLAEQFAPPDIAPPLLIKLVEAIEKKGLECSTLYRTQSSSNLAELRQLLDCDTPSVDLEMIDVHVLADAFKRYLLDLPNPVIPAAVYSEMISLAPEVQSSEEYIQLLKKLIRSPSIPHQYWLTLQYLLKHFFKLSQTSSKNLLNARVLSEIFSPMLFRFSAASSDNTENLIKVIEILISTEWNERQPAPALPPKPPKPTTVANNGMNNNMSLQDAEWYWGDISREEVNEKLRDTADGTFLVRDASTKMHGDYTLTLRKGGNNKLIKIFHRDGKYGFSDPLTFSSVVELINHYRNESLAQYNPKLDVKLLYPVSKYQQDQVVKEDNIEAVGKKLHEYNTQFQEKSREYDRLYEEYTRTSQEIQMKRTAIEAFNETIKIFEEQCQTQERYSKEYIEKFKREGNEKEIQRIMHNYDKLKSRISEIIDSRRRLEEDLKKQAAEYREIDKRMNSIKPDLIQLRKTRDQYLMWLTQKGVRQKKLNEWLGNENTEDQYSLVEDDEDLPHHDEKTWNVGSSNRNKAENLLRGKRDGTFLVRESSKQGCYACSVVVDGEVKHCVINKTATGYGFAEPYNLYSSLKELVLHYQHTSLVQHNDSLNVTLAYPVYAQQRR
Sequence of PI3K-α (PIK3CA) in MDA-MB-453 cells (P42336 whole entry): as the sequence (P42336 whole entry H1047R) above, with R1047H counted along it
Sequence of PI3K-α (PIK3CA) in MDA-MB-453 cells (P27986 2-724, further chain): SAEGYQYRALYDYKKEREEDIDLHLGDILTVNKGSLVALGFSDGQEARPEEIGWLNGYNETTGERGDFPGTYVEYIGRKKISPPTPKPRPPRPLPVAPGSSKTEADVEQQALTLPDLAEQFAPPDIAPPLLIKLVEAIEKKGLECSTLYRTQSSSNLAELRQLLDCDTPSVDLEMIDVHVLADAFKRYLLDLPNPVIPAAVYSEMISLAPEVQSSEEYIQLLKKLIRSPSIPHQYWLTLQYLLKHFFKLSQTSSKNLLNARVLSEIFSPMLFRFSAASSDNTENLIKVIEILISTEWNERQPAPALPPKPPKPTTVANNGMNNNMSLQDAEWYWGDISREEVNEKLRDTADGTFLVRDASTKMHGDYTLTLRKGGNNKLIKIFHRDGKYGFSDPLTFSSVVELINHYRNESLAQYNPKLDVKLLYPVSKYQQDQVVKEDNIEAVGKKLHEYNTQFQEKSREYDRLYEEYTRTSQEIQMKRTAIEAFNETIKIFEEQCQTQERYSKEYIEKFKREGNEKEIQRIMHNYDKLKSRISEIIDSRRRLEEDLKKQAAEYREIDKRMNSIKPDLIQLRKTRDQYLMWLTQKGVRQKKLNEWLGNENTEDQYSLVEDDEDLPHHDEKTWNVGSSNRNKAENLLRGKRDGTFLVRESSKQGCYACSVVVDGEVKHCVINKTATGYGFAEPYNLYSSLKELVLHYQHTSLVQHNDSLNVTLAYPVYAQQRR

`Cc1c(-c2cncc(F)c2)oc2c(C(C)Nc3ccc(Cl)nc3C(=O)O)cc(C(F)(F)F)cc2c1=O` (single isomer, unassigned; isomer 1) [Example 97, 6-Chloro-3-[1-[2-(5-fluoro-3-pyridyl)-3-methyl-4-oxo-6-(trifluoromethyl)chromen-8-yl]ethylamino]pyridine-2-carboxylic acid, Isomer 1]: the values for the IC50 in assay [1] (Soy PI lipid substrate), in assay [2] (Soy PI lipid substrate) and in assay [3] were under 500 nM, 1000 to 5000 nM and under 50 nM, respectively.
Consider `Cc1cc(C(C)Nc2cccc(F)c2C(=O)O)c2oc(-c3ccccn3)cc(=O)c2c1` (single isomer, unassigned; isomer 1) [Example 110, 2-Fluoro-6-[1-[6-methyl-4-oxo-2-(2-pyridyl)chromen-8-yl]ethylamino]benzoic acid, Isomer 1], for which the IC50 in assay [1] (Soy PI lipid substrate) was under 500 nM; in assay [2] (Soy PI lipid substrate), 1000 to 5000 nM; in assay [3], 100 to 500 nM.
`Cc1cc(C(C)Nc2cccc(F)c2C(=O)O)c2oc(-c3cnn(-c4ccc(C#N)cc4)c3)cc(=O)c2c1` (single isomer, unassigned; isomer 1) [Example 112, 2-[1-[2-[1-(4-Cyanophenyl)pyrazol-4-yl]-6-methyl-4-oxo-chromen-8-yl]ethylamino]-6-fluoro-benzoic acid, Isomer 1]: the IC50 in assay [1] (Soy PI lipid substrate) was 5000 to 10000 nM; in assay [2] (Soy PI lipid substrate) it was over 10000 nM; in assay [3], over 500 nM.
For `Cc1cc(C(C)Nc2ccc(F)c(F)c2C(=O)O)c2oc(-c3cnn(-c4ccc(C#N)cc4)c3)cc(=O)c2c1` (single isomer, unassigned; isomer 1) [Example 114, 6-[1-[2-[1-(4-Cyanophenyl)pyrazol-4-yl]-6-methyl-4-oxo-chromen-8-yl]ethylamino]-2,3-difluoro-benzoic acid, Isomer 1], in that order: 1000 to 5000 nM, 5000 to 10000 nM and over 500 nM.
For `Cc1cc(C(C)Nc2ccc(Cl)nc2C(=O)O)c2oc(-c3cccnc3)c(C)c(=O)c2c1` (single isomer, unassigned; isomer 1) [Example 115, 6-Chloro-3-[1-[3,6-dimethyl-4-oxo-2-(3-pyridyl)chromen-8-yl]ethylamino]pyridine-2-carboxylic acid, Isomer 1], in that order: under 500 nM, 500 to 1000 nM and under 50 nM.
For `Cc1cc(C(C)Nc2cccnc2C(=O)O)c2oc(-c3cccnc3)c(C)c(=O)c2c1` (single isomer, unassigned; isomer 1) [Example 116, 3-[1-[3,6-Dimethyl-4-oxo-2-(3-pyridyl)chromen-8-yl]ethylamino]pyridine-2-carboxylic acid, Isomer 1], in that order: under 500 nM, 5000 to 10000 nM and 50 to 100 nM.
Turning to `Cc1cc(C(C)Nc2ccc(C(F)(F)F)nc2C(=O)O)c2oc(-c3cccnc3)c(C)c(=O)c2c1` (single isomer, unassigned; isomer 1) [Example 117, 3-[1-[3,6-Dimethyl-4-oxo-2-(3-pyridyl)chromen-8-yl]ethylamino]-6-(trifluoromethyl)pyridine-2-carboxylic acid, Isomer 1], the IC50 in assay [1] (Soy PI lipid substrate) was under 500 nM; in assay [2] (Soy PI lipid substrate), 1000 to 5000 nM; in assay [3] it was under 50 nM.
For `Cc1cc(C(C)Nc2ccc(C)nc2C(=O)O)c2oc(-c3cccnc3)c(C)c(=O)c2c1` (single isomer, unassigned; isomer 1) [Example 118, 3-[1-[3,6-Dimethyl-4-oxo-2-(3-pyridyl)chromen-8-yl]ethylamino]-6-methyl-pyridine-2-carboxylic acid, Isomer 1], in that order: under 500 nM, 1000 to 5000 nM and 50 to 100 nM.
Taken in the same sequence, the figures for `Cc1cc(C(C)Nc2ccc(C(F)(F)F)cc2C(=O)O)c2oc(-c3cccnc3)c(C)c(=O)c2c1` (single isomer, unassigned; isomer 1) [Example 119, 2-[1-[3,6-Dimethyl-4-oxo-2-(3-pyridyl)chromen-8-yl]ethylamino]-5-(trifluoromethyl)benzoic acid, Isomer 1] were under 500 nM, 1000 to 5000 nM and 50 to 100 nM.
`Cc1cc(C(C)Nc2ccc(F)cc2C(=O)O)c2oc(-c3cccnc3)c(C)c(=O)c2c1` (single isomer, unassigned; isomer 1) [Example 120, 2-[1-[3,6-Dimethyl-4-oxo-2-(3-pyridyl)chromen-8-yl]ethylamino]-5-fluoro-benzoic acid, Isomer 1]: the IC50 in assay [1] (Soy PI lipid substrate) was under 500 nM; in assay [2] (Soy PI lipid substrate) it was 1000 to 5000 nM; in assay [3] it was under 50 nM.
Taken in the same sequence, the figures for `Cc1cc(C(C)Nc2ccc(C)nc2C(=O)O)c2oc(-c3ccccn3)c(C)c(=O)c2c1` (single isomer, unassigned; isomer 1) [Example 122, 3-[1-[3,6-Dimethyl-4-oxo-2-(2-pyridyl)chromen-8-yl]ethylamino]-6-methyl-pyridine-2-carboxylic acid, Isomer 1] were under 500 nM, 5000 to 10000 nM and 50 to 100 nM.
For `Cc1cc(C(C)Nc2ccc(C)nc2C(=O)O)c2oc(-c3cncc(F)c3)c(C)c(=O)c2c1` (single isomer, unassigned; isomer 1) [Example 123, 3-[1-[2-(5-Fluoro-3-pyridyl)-3,6-dimethyl-4-oxo-chromen-8-yl]ethylamino]-6-methyl-pyridine-2-carboxylic acid, Isomer 1], in that order: under 500 nM, 1000 to 5000 nM and under 50 nM.
For the compound `Cc1cc(C(C)Nc2ccc(F)c(F)c2C(=O)O)c2oc(-c3ccccn3)c(C)c(=O)c2c1` (single isomer, unassigned; isomer 1) [Example 128, 6-[1-[3,6-Dimethyl-4-oxo-2-(2-pyridyl)chromen-8-yl]ethylamino]-2,3-difluoro-benzoic acid, Isomer 1], the IC50 in assay [1] (Soy PI lipid substrate) is under 500 nM; in assay [2] (Soy PI lipid substrate) it was 500 to 1000 nM; in assay [3], 50 to 100 nM.
For `Cc1cc(C(C)Nc2ccc(Br)nc2C(=O)O)c2oc(-c3cccnc3)c(C)c(=O)c2c1` (single isomer, unassigned; isomer 1) [Example 129, 6-Bromo-3-[1-[3,6-dimethyl-4-oxo-2-(3-pyridyl)chromen-8-yl]ethylamino]pyridine-2-carboxylic acid, Isomer 1], in that order: under 500 nM, under 500 nM and under 50 nM.
For `Cc1cc(C(C)Nc2ccccc2C(=O)O)c2oc(-c3cnc(N(C)C)s3)c(C)c(=O)c2c1` (single isomer, unassigned; isomer 1) [Example 130, 2-[1-[2-[2-(Dimethylamino)thiazol-5-yl]-3,6-dimethyl-4-oxo-chromen-8-yl]ethylamino]benzoic acid, Isomer 1], in that order: under 500 nM, 500 to 1000 nM and under 50 nM.
For `Cc1cc(C(C)Nc2cccnc2C(=O)O)c2oc(-c3cncc(F)c3)c(C)c(=O)c2c1` (single isomer, unassigned; isomer 1) [Example 131, 3-[1-[2-(5-Fluoro-3-pyridyl)-3,6-dimethyl-4-oxo-chromen-8-yl]ethylamino]pyridine-2-carboxylic acid, Isomer 1], the IC50 in assay [1] (Soy PI lipid substrate) was 1000 to 5000 nM; in assay [2] (Soy PI lipid substrate), over 10000 nM; in assay [3], 50 to 100 nM.
For `Cc1cc(C(C)Nc2ccc(Cl)cc2C(=O)O)c2oc(-c3cccnc3)c(C)c(=O)c2c1` (single isomer, unassigned; isomer 1) [Example 132, 5-Chloro-2-[1-[3,6-dimethyl-4-oxo-2-(3-pyridyl)chromen-8-yl]ethylamino]benzoic acid, Isomer 1], in that order: under 500 nM, 500 to 1000 nM and under 50 nM.
In the case of `COc1cccc(-c2cc(=O)c3cc(C)cc(C(C)Nc4ccccc4C(=O)O)c3o2)n1` (single isomer, unassigned; isomer 2) [Example 22, 2-[1-[2-(6-Methoxy-2-pyridyl)-6-methyl-4-oxo-chromen-8-yl]ethylamino]benzoic acid, Isomer 2], the IC50 was under 500 nM in assay [1] (Soy PI lipid substrate), 1000 to 5000 nM in assay [2] (Soy PI lipid substrate) and 50 to 100 nM in assay [3].
For `Cc1cc(C(C)Nc2ccccc2C(=O)O)c2oc(-c3nccnc3C)cc(=O)c2c1` (single isomer, unassigned; isomer 2) [Example 29, 2-[1-[6-Methyl-2-(3-methylpyrazin-2-yl)-4-oxo-chromen-8-yl]ethylamino]benzoic acid, Isomer 2], in that order: under 500 nM, 5000 to 10000 nM and 100 to 500 nM.
Take `Cc1cc(C(C)Nc2ccccc2C(=O)O)c2oc(-c3cnc(C)nc3)cc(=O)c2c1` (single isomer, unassigned; isomer 2) [Example 33, 2-[1-[6-Methyl-2-(2-methylpyrimidin-5-yl)-4-oxo-chromen-8-yl]ethylamino]benzoic acid, Isomer 2]: the IC50 in assay [1] (PIP2diC8 lipid substrate) was over 10000 nM; in assay [2] (PIP2diC8 lipid substrate), over 10000 nM; in assay [3], over 500 nM.
